Holding throughout (assay): inhibition of tumour cell growth, NCI panel, 48 h
The subject of assay [1] is HOP-92 NSCLC.
The subject of assay [2] is LOX IMVI melanoma.
Assay [3] relates to DMS 273 small cell lung.
Assay [4] relates to KM20L2 colon.
For assay [5], the system named is SK-MEL-2 melanoma.
The subject of assay [6] is HCC-2998 colon.
The subject of assay [7] is NCI-H460 lung.
Assay [8] relates to EKVX NSCLC.
Assay [9] concerns SNB-75 CNS.
The subject of assay [10] is MCF7 breast.

Each structure is given as a SMILES string.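 In this assay, cells in 96-well plates receive the compound at five concentrations for 48 hours. Endpoints are linearly interpolated between the surrounding concentrations. GI50: concentration for 50% inhibition of growth. TGI: total growth inhibition.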

On to `COc1cccc(-c2cc(C(=O)Nc3ccc(Cl)cc3)nc(N)n2)c1`, for which the TGI in [1], in [2], in assay [3], in assay [4], in assay [5] and in assay [6] was above 100 µM throughout. For the same compound, the TGI is above 100 µM in assay [7], above 100 µM in [8] and 68.1 µM in assay [9].
Consider `CN1CCN2c3ccccc3CC(C#N)(C#N)C2C1` (configuration not stated), for which the TGI in assay [1], in assay [2], in assay [3], in assay [4], in assay [5] and in [6] was above 100 µM throughout. Also, the TGI in [7], in assay [8] and in assay [9] was above 100 µM each time.
With `Clc1cc2nc[nH]c2cc1Cl`, the TGI in [1], in assay [2], in assay [3], in assay [5], in assay [6] and in assay [7] was above 100 µM throughout. The TGI in assay [8] was above 100 µM; in assay [9], 83.9 µM.
Take `N#CC1=C(c2ccccc2)NN(Cc2ccccc2)C(c2ccc(Cl)cc2)CC1=O` (configuration not stated): the TGI in [1] was 45.1 µM; in assay [2] it was 41.8 µM; in [3] it was 52.8 µM; in assay [4], 75.8 µM; in assay [5], above 100 µM; in assay [7], 52.9 µM. The TGI in assay [9] is 46 µM.
On to `C[C@]12CC[C@H](OC(=O)Cc3ccc(N(CCCl)CCCl)cc3)CC1CC[C@@H]1C2CC[C@]2(C)NC(=O)CCC12` (some centres not stated), for which the TGI in [1] turned out to be 35.6 µM; in assay [2], 27.2 µM; in assay [3], 20.5 µM; in assay [4], 23.7 µM; in assay [5], 48.7 µM; in assay [6], 34.8 µM. Besides, the TGI turned out to be 35.1 µM in [7] and 27.4 µM in assay [9].
`CCOC(=O)C1Nc2ccc([N+](=O)[O-])cc2[C@H]2OCC[C@@H]12` (some centres not stated): the TGI in assay [2], in assay [3], in [4], in assay [5], in assay [6] and in assay [7] was above 100 µM in each case. The TGI in assay [8] and in assay [9] was above 100 µM throughout.
On to `COc1ccc(C(=C(C#N)C#N)c2ccc(OC)cc2)cc1`, for which the TGI in assay [2], in [3], in [4], in assay [5], in assay [6] and in [7] was above 100 µM in each case. Besides, in assay [8], the TGI was above 100 µM.
Consider `CCOC(=O)NC(=O)c1cn(CC(=O)NCC(=O)NCC(=O)N2CCN(CCn3c(C)nc(C(N)=O)c3N)CC2)c(=O)[nH]c1=O`, for which the TGI in assay [1], in assay [2], in assay [4], in [5], in assay [6] and in assay [7] was above 100 µM in each case. The TGI in assay [9] was above 100 µM.
Consider `CO[C@H](C(=O)O[C@H]1C(=O)N2CCC3CCC1C32C)c1ccccc1` (some centres not stated), for which the TGI in assay [2], in [4], in assay [5], in [6], in assay [7] and in assay [8] was above 100 µM each time. This compound also showed a TGI in assay [9] above 100 µM.
In the case of `CN(C(=N)c1ccccc1)c1ccccc1`, the TGI in assay [1], in assay [2], in assay [3], in assay [4], in [5] and in [6] was above 100 µM each time. Further, the TGI in assay [8] and in assay [9] was above 100 µM in each case.
Take `O=C(/C=C/c1ccc[nH]1)c1ccccc1`: the TGI in assay [1], in assay [2], in [3], in assay [4], in [5] and in assay [7] was above 100 µM each time. This compound registered a TGI in assay [9] above 100 µM.
On to `Cc1cc(Cl)ccc1NC(=O)C1C(=O)C(=O)N(c2ccc(Cl)cc2C)C1=O` (configuration not stated), for which the TGI was 54.2 µM in assay [1]; above 100 µM in assay [2]; above 100 µM in assay [3]; above 100 µM in assay [4]; above 100 µM in assay [5]; above 100 µM in assay [6]. The TGI in [8] and in [9] was above 100 µM throughout.
Turning to `COc1ccc2c(c1)[n+]([O-])c(/C(C)=N/NC(N)=S)c(C)[n+]2[O-]`, the TGI in assay [1] was above 100 µM; in [2] it was above 100 µM; in [4], above 100 µM; in [5] it was above 100 µM; in [6], above 66.7 µM; in [7], above 71.4 µM. Further, the TGI in assay [8], in assay [10] and in assay [9] was above 100 µM throughout.
`[O-]c1ccccc1[C-]=Nc1ccccc1O.[O-]c1ccccc1[C-]=Nc1ccccc1O.[O]=[U]=[O]`: the GI50 in assay [1] is 8.4 µM; in assay [2], 9.82 µM; in [3], 13.7 µM; in assay [4], 856 nM; in assay [5], 13.2 µM; in assay [7], 14.5 µM. Further, the GI50 in assay [8] was 24 µM; in [9], 25.1 µM. Further, the TGI in assay [1] is 35.2 µM; in [2], 68 µM; in assay [3] it was 59.5 µM; in assay [4] it was above 100 µM; in assay [5], 37.3 µM; in assay [7], 41.2 µM. Moreover, the figures for the TGI in assay [8] and in assay [9] were 62.4 µM and 64.5 µM, respectively.
Turning to `O=C1C2c3[nH]c4ccccc4c3C3CCC(c4ccccc4)CC3C2C(=O)N1c1ccccc1` (configuration not stated), the TGI in [2] was above 100 µM; in assay [3] it was above 100 µM; in assay [6], above 100 µM; in assay [7] it was above 100 µM; in [8], above 100 µM; in [9], 55.9 µM.
For `CN1C(=O)C(C)(C)NS1(=O)=O`, the TGI in assay [2], in assay [3], in assay [4], in [5], in [6] and in assay [7] was above 100 µM throughout. Further, the TGI in assay [8] and in [9] was above 100 µM throughout.

These data come from PubChem BioAssay (NCI).
